# Measured values reported in ChEMBL document CHEMBL1201862, “PubChem BioAssay data set” (2004).
# Activity calls are given as the source filed them.
# What was measured:
# [1] = biological target: T1, Estrogen receptor (Homo sapiens, UniProt P03372);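 note: potency for inhibiting coactivator peptide recruitment to the receptor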
# T1 sequence (P03372 whole entry): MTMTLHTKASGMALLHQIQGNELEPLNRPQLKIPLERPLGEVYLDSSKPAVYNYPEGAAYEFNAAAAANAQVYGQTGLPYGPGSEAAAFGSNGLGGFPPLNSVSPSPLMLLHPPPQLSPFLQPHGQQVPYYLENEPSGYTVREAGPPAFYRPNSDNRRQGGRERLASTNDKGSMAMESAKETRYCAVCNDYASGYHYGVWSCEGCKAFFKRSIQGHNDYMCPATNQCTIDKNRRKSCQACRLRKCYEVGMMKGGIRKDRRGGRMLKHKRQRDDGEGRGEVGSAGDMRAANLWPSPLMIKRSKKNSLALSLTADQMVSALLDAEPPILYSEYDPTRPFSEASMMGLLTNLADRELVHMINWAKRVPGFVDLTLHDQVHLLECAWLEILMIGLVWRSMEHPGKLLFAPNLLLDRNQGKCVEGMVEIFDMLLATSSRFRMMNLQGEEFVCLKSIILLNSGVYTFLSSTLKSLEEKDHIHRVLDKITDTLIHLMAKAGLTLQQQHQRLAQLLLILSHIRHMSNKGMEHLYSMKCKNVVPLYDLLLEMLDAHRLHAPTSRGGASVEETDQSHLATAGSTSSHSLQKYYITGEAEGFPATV
# [2] = biological target: T2, Carboxy-terminal domain RNA polymerase II polypeptide A small phosphatase 1 (Homo sapiens, UniProt Q9GZU7); test: inhibitors of CTDSP1, concentration-response testing, biochemical assay, absorbance-based, actives from ultra-high-throughput screening (AID 540297); format: functional
# T2 sequence (Q9GZU7 whole entry): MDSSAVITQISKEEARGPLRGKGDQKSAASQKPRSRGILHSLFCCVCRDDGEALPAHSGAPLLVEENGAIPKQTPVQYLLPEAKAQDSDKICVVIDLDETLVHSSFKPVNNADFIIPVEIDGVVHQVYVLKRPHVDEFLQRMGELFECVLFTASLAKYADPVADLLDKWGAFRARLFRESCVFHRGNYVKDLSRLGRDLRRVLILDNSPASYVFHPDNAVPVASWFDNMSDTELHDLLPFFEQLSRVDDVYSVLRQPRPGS
# [3] = biological target: Large T antigen (Simian virus 40, UniProt P03070); format: functional, Betapolyomavirus macacae;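 note: Confirmatory-stage PubChem screen for compounds that inhibit SV40 T antigen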
# Chain of Large T antigen (P03070 whole entry): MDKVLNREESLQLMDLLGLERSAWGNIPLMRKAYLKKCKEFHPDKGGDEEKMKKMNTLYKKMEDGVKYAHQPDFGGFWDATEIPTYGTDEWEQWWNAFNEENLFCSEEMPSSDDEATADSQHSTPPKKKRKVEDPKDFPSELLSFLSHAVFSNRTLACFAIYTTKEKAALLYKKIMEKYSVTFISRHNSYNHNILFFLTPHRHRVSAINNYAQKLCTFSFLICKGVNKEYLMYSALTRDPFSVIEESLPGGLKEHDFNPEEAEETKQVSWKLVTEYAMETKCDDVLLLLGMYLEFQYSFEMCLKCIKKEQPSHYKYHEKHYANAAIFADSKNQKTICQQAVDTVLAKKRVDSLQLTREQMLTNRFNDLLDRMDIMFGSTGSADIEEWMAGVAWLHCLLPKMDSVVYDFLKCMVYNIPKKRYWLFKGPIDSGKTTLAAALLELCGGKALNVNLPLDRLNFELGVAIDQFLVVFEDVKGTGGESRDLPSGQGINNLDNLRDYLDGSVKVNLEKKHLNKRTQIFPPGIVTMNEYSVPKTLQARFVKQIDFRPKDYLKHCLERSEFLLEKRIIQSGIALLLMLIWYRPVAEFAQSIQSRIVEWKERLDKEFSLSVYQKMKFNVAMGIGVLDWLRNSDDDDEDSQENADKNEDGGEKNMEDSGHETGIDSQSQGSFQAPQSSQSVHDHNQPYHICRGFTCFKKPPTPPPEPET
# [4] = biological target: Glucose-6-phosphate 1-dehydrogenase (Homo sapiens, UniProt P11413); test: human G6PD enzyme inhibitors, dose response, selectivity assay for P. falciparum G6PD inhibitor project, biochemical, fluorescence (AID 504792); format: functional
# Chain of Glucose-6-phosphate 1-dehydrogenase (P11413 whole entry): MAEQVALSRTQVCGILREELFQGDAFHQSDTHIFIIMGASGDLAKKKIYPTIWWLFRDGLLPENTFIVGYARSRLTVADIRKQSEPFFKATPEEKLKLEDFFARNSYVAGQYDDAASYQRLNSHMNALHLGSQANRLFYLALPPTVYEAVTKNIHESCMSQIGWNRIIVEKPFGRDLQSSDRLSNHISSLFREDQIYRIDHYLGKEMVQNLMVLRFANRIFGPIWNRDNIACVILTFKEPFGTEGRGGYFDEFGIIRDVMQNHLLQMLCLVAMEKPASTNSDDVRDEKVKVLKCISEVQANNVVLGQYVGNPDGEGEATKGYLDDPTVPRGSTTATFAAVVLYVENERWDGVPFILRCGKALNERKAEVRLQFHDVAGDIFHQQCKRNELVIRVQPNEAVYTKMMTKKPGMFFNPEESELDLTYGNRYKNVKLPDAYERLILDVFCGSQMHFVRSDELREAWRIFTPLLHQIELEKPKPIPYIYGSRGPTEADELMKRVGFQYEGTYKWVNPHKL
# [5] = biological target: DNA dC->dU-editing enzyme APOBEC-3G (Homo sapiens, UniProt Q9HC16); test: Dose Response confirmation of small molecule APOBEC3G DNA Deaminase Inhibitors via a fluorescence-based single-stranded DNA deaminase assay. [Related pubchem assays (depositor defined):AID493012, AID493028]; format: functional
# Chain of DNA dC->dU-editing enzyme APOBEC-3G (Q9HC16 whole entry): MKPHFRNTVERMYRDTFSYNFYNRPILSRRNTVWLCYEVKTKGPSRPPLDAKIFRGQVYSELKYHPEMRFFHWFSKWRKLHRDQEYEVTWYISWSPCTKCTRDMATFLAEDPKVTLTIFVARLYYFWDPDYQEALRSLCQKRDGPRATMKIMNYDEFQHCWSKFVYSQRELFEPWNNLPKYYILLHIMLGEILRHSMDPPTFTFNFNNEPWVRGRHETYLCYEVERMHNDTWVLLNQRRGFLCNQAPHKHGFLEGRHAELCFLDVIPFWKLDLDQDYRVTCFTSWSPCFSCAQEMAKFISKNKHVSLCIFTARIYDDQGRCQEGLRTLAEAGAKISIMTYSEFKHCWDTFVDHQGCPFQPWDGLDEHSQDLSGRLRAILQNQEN
# [6] = biological target: T3, Mitochondrial peptide methionine sulfoxide reductase (Bos taurus, UniProt P54149); test: Absorbance-based biochemical high throughput dose response assay for activators of Methionine sulfoxide reductase A (MsrA).; format: functional
# T3 sequence (P54149 whole entry): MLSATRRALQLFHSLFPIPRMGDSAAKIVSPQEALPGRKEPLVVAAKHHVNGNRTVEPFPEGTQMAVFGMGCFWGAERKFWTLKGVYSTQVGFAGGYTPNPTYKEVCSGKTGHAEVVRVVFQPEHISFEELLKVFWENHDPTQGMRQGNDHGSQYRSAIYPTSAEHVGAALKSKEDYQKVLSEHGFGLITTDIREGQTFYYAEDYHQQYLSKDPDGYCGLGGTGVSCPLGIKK
# [7] = biological target: Cytochrome P450 2C19 (Homo sapiens, UniProt P33261); test: Cytochrome panel assay with activity outcomes. Panel member name: p450-cyp2c19 Compounds with AC50 equal or less than 10 uM are considered active; format: functional; conditions: read-out: AC50
# Chain of Cytochrome P450 2C19 (P33261 whole entry): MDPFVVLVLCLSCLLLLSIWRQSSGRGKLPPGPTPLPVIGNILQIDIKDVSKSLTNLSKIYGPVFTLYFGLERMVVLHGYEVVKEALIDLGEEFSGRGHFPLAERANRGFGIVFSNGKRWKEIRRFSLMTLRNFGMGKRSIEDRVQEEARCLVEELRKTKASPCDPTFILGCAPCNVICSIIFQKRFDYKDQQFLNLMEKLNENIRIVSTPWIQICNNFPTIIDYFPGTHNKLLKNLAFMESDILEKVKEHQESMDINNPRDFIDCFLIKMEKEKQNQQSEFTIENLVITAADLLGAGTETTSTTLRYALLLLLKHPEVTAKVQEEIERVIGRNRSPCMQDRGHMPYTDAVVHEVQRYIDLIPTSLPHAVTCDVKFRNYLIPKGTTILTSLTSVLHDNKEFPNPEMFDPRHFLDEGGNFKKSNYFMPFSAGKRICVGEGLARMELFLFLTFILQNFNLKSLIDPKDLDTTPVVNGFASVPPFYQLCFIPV
# [8] = biological target: Cytochrome P450 3A4 (Homo sapiens, UniProt P08684);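 note: CYP3A4 tested as one member of a cytochrome P450 panel screen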
# Chain of Cytochrome P450 3A4 (P08684 whole entry): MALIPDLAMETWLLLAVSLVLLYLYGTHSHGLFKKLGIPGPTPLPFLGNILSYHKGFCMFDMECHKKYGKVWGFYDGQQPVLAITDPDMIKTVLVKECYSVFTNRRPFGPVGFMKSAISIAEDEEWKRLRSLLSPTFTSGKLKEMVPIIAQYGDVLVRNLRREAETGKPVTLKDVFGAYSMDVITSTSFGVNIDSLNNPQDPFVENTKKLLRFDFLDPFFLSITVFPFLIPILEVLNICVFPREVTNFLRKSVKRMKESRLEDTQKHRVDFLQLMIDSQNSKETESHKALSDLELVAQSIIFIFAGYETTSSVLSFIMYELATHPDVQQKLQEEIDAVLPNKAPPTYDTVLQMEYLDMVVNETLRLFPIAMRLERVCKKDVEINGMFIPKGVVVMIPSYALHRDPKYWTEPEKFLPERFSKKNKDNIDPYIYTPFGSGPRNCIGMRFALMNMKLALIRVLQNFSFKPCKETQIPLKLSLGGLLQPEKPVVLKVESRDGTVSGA
# [9] = biological target: Cytochrome P450 2C9 (Homo sapiens, UniProt P11712)
# Chain of Cytochrome P450 2C9 (P11712 whole entry): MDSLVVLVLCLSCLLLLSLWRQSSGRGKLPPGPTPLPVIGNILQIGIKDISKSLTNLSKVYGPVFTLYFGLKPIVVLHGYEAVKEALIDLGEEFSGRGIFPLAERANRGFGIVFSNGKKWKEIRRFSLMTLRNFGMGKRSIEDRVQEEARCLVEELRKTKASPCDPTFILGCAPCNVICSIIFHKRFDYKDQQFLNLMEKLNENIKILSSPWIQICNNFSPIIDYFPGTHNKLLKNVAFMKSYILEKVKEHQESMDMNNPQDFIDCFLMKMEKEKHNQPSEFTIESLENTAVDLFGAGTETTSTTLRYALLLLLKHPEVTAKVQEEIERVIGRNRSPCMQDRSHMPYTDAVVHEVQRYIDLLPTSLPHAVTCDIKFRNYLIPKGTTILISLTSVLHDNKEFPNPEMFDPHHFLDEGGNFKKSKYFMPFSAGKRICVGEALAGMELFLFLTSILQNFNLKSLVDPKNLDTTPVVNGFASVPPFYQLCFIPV
# [10] = cytotoxicity in HPDE-C7 cells, cell-based, fluorescence, HTS (AID 430); format: functional; conditions: Homo sapiens
# [11] = cytotoxicity in KRAS-transformed pancreatic duct cells, primary screen, cell-based, fluorescence, HTS (AID 431); format: functional; conditions: Homo sapiens;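 note: cell line used: HPDE-C7K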
# [12] = tested on: HEK293; test: inhibitors of LMP1-driven NF-kB reporter, dose response, cell-based, HEK293, luciferase, cherry-pick (AID 588343); format: functional; conditions: Homo sapiens
# [13] = Shn3 3'UTR reporter inhibitors, dose response, cell-based, Clone20 osteoblasts, firefly luciferase, cherry-picked (AID 624132); format: functional;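 note: firefly luciferase luminescence from reporter carrying the Shn3 3'UTR in osteoblasts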
# [14] = HepG2 cell cytotoxicity, dose response, cytotoxicity control for Shn3 inhibitor project, CellTiter-Glo, cherry-picked (AID 624134); format: functional, cell-based
# [15] = control 3'UTR Renilla luciferase suppression, dose response, counter-screen for Shn3 inhibitor project, cell-based, Clone20-Shn3RL, cherry-picked (AID 624133); format: functional
# [16] = cytotoxicity in HEK-293T cells, dose response, cytotoxicity control for TCR NF-kB inhibitor project, luminescence, T-cell screen hits (AID 489026); format: functional, cell-based;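 note: cells exposed to compound about 14 hours before the viability readout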
# [17] = tested on: Vero; test: cells; format: functional, cell-based; conditions: Chlorocebus sabaeus
# [18] = tested on: Vero; test: cells; format: functional; conditions: Chlorocebus sabaeus
smiles,measurement,setting,value
Cn1c(SCc2cc(=O)n3cc(Br)ccc3n2)nnc1C1COc2ccccc2O1 (stereo not drawn),IC50,[1],25.2 µM (active)
same,IC50,[2],17.8 µM (active)
OCc1ccccc1SSc1ccccc1CO,IC50,[3],11.4 µM (active)
same,IC50,[4],> 80 µM (inactive)
same,IC50,[5],12.3 µM (active)
same,EC50,[6],> 104 µM (inactive)
Cc1ccc(-c2cc[nH]c(=S)n2)cc1,AC50,[7],14.1 µM (inconclusive)
same,EC50,[6],> 104 µM (inactive)
same,AC50,[8],14.1 µM (inconclusive)
same,AC50,[9],10 µM (inconclusive)
O=C(Nc1cc(S(=O)(=O)Nc2ccc(Cl)cc2)ccc1O)c1ccc(S(=O)(=O)N2CCCCCC2)cc1,IC50,[5],73.7 µM (active)
same,IC50,[2],2.73 µM (active)
Fc1ccc2[nH]c3c(N4CCSCC4)ncnc3c2c1,EC50,[10],13.4 µM (active)
same,EC50,[11],13.3 µM (active)
same,AC50,[12],1.5 µM (active)
same,AC50,[13],2.76 µM (active)
same,AC50,[14],30 µM (active)
same,AC50,[15],2.6 µM (active)
COc1cc(C(=O)OCCc2cc3ccccc3c(=O)o2)cc(OC)c1OC,IC50,[16],69.5 µM (inactive)
O=C(CNC(=O)c1cccc(S(=O)(=O)N2CCc3ccccc32)c1)Nc1ccccc1Br,IC50,[17],16.9 µM (active)
same,CC50,[18],> 25 µM (active)
COc1cc(N)c2ncsc2c1,IC50,[4],> 80 µM (inactive)
C[C@H](CO)N1C[C@H](C)[C@@H](CN(C)C(=O)Nc2ccc(C(F)(F)F)cc2)Oc2c(cccc2N(C)C)C1=O,IC50,[4],> 80 µM (inactive)
